Data set [1] concerns E. romani P–I and P–III SVMPs. The settings on record: drug 2 μM, gel.
Protocol: (§1) Evaluation of SVMP toxin activity of human prothrombin and fibrinogen and inhibition by test compounds was performed by SDS-PAGE degradation gel electrophoresis using venom-purified toxins. P–I, P–II and P–III SVMPs were isolated using an adaptation of the method of Howes et al. Whole E. romani venom (15 mg) was initially separated using size exclusion chromatography (SEC) on a 120 mL column of Superdex 75 (Cytiva). The P–II SVMP (22 kDa) was pure and ready to use at this stage. P–I and P–III SVMP containing peaks were separately applied to a 1 mL high resolution hydrophobic interaction chromatography (HIC) column (SOURCE 15PHE, Cytiva). […] The P–I eluted as two peaks of proteins with identical molecular weight (21 kDa) which were combined back together. The P–III-containing fraction from SEC eluted from HIC as multiple peaks of P–III SVMP isoforms, well separated from the earlier eluting L-amino acid oxidase and high molecular weight C-type lectin-like proteins. The proteins in the PIII-containing peaks were pooled back together.
Prothrombin degradation was measured by incubating 2 μg of human prothrombin (Hematologic Technologies INC) in the presence or absence of drug and the P–I, P–II, and P–III SVMPs. […] Briefly, drug or DMSO and 200 ng of purified SVMP isoform were incubated for 30 min at 37 °C in a water bath, after which 2 μg of human prothrombin were added and the samples incubated for another hour at 37 °C. Drug concentrations used were 2 μM for P–I and P–III SVMPs. Samples were then processed for loading onto a 4–20% SDS-PAGE gel (Biorad) and were run under reducing conditions for 45 min at 180 V. The gels were stained with Coomassie Brilliant Blue R250 and degradation profiles were visualized and images captured using a GelDoc (Biorad).
Data set [2] deals with procoagulant activity of E. romani venom. Conditions: read-out: Coagulation assay EC50 E. romani; 10 ng E. romani venom, citrated bovine plasma; mean of n ≥ 3, range in brackets.
Protocol: (§2) This assay consists of preincubating venom (or venom vehicle control) at a species-specific dose with the compound of interest (or compound vehicle control), then adding citrated bovine plasma to the wells and activating the clotting cascade with calcium chloride. […] Compounds of interest were stamped onto 384-well plates at a volume of 0.5 μL and a concentration of 10 mM in 100% DMSO. Positive and negative control wells were stamped with 0.5 μL of 100% DMSO. To the test wells and the venom-only positive control wells, 10 μL of venom diluted to 1 μg/mL (E. romani) or 10 μg/mL (B. jararaca) in PBS was added, giving a final well amount of 10 ng (E. romani) or 100 ng (B. jararaca) per well. In the no venom negative control wells, 10 μL of PBS was added. The plates were then sealed, span briefly in a Platefuge and incubated at 37 °C for 25 min to allow venom-inhibitor interaction. While the plates were incubating, sufficient citrated bovine plasma (S0260, BioWest) to allow 20 μL/well was centrifuged at 3120 RCF for 5 min to remove any residual cellular debris and the supernatant was collected. The 384-well plates were removed from the incubator for 5 min to allow acclimation to room temperature, then 20 μL/well of 20 mM CaCl2 was added and immediately followed by the addition of 20 μL/well of centrifuged citrated bovine plasma, both via a Multidrop Combi reagent dispenser (5840330, Thermo Fisher Scientific). The plates were then read kinetically using an absorbance protocol on a CLARIOStar microplate reader at 595 nm for 60 min. […] Dose response plates were conducted identically and the % inhibition values at each dose were used to draw EC50 curves to estimate the EC50 value of each compound tested. All coagulation experiments were repeated independently a minimum of three times.
The subject of data set [3] is E. romani P–I, P–II and P–III SVMPs. Conditions: P–I, P–II, P–III SVMPs; drug 10 μM (P–I, P–II), 400 nM (P–III); gel.
Protocol: as §1
Degradation of human fibrinogen was measured in a similar manner. Human fibrinogen (Merck) was added at 5 μg/reaction and incubated with the different SVMP isoforms in the presence or absence of drugs. Drug concentrations used were 10 μM for P–I and P–II SVMP and 400 nM for P–III SVMP. The reactions consisted of 200 ng SVMP isoform and the appropriate concentration of drug, which were then incubated for 30 min at 37 °C in a water bath. Five micrograms of fibrinogen were then added and the samples incubated for another hour at 37 °C, before separation by SDS-PAGE as described above.
Data set [4] relates to procoagulant venom activity (E. romani and B. jararaca). The settings on record: in words; coagulation assay.
Protocol: as §2
In data set [5] the test system is procoagulant activity of B. jararaca venom. The settings on record: read-out: Coagulation assay EC50 B. jararaca; 100 ng B. jararaca venom, citrated bovine plasma; mean of n ≥ 3, range in brackets.
Protocol: as §2
The subject of data set [6] is SVMP activity of Calloselasma rhodostoma venom. Conditions: read-out: Inhibition of SVMP enzymatic activity EC50 CRH; C. rhodostoma venom; mean of n ≥ 3, range in brackets.
Protocol: (§3) Throughout our medicinal chemistry campaign, compounds were evaluated for their ability to inhibit enzymatic SVMP toxin activity in vitro using a previously described fluorescent-based substrate cleavage assay against five medically important viper venoms, namely Echis romani (Roman’s carpet viper, West Africa), Crotalus atrox (Western diamondback rattlesnake, North America), Calloselasma rhodostoma (Malayan pit viper, South East Asia), Bothrops jararaca (jararaca, South America) and Bitis arietans (puff adder, Africa).
(§4) Compounds of interest were stamped onto 384-well plates at a volume of 0.91 μL at a concentration of 1 mM in 100% DMSO (D2650, Sigma-Aldrich). Positive and negative control wells were stamped with 0.91 μL of 100% DMSO. To the test wells and the venom-only positive control wells, 15 μL of venom diluted to 0.066 μg/mL in PBS was added, giving a final amount of 1 μg/well. In the no venom negative control wells, 15 μL of PBS was added. The plates were then sealed, span briefly in a Platefuge (C2000, Benchmark Scientific) and incubated at 37 °C for 25 min to allow venom-inhibitor interaction. […] Dose response plates were conducted identically and the % inhibition values at each dose were used to draw EC50 curves to estimate the EC50 value of each compound tested. All SVMP experiments were repeated independently a minimum of three times.
For data set [7], the system named is SVMP activity of Bothrops jararaca venom. Conditions: read-out: Inhibition of SVMP enzymatic activity EC50 BJA; B. jararaca venom; mean of n ≥ 3, range in brackets.
Protocol: as §3, §4
In data set [8] the test system is SVMP activity of Bitis arietans venom. Conditions: read-out: Inhibition of SVMP enzymatic activity EC50 BAR; B. arietans venom; mean of n ≥ 3, range in brackets.
Protocol: as §3, §4
The nature of data set [9]: in vitro. Conditions: human, microsomes.
Protocol: (§5) The DMPK properties data described in the manuscript were measured via a high-throughput platform by AstraZeneca (United Kingdom).
Data set [10] relates to SVMP activity of Crotalus atrox venom. Conditions: read-out: Inhibition of SVMP enzymatic activity EC50 CAT; C. atrox venom; mean of n ≥ 3, range in brackets.
Protocol: as §3, §4
Data set [11] in a line: in vitro. Conditions: rat, hepatocytes.
Protocol: as §5
For data set [12], the system named is SVMP activity of Echis romani venom. The settings on record: read-out: Inhibition of SVMP enzymatic activity EC50 ERO; E. romani venom; mean of n ≥ 3, range in brackets.
Protocol: as §3, §4
Data set [13] can be described thus: physchem. The settings on record: aqueous medium at pH 7.4, pH 7.4, aqueous buffer.
Protocol: as §5
Data set [14] can be described thus: physchem. Conditions: organic solvent / aqueous solvent at pH 7.4, pH 7.4.
Protocol: as §5

These results are taken from PMC13126677 (Journal of Medicinal Chemistry, 2026).

≈ marks a conversion by molar mass, not a printed value. Bounds are passed on as bounds.

Protocol for human plasma protein: as §5

In the case of `CC1(C)SCCN(S(=O)(=O)c2ccc(Oc3ccncc3)cc2)[C@H]1C(=O)NO` [Prinomastat, prinomastat, reference compound], the “protection against prothrombin degradation” value in data set [1] was “almost full protection”. Also, the concentration for a half-maximal effect (EC50) in data set [2] amounted to 558 nM; in data set [5], 972 nM. Moreover, the “protection against degradation of fibrinogen” value in [3] was “protected against the degradation of fibrinogen”. Moreover, the “inhibition of procoagulant venom activity” value (“inhibition” for short) in data set [4] was “demonstrated inhibition of procoagulant activity”.

Take `COCCN1CCN(S(=O)(=O)c2ccc(Oc3ccc(Cl)cc3)cc2)[C@@H](C(=O)NO)C1` [compound 15, (R)-1-((4-(4-Chlorophenoxy)phenyl)sulfonyl)-N-hydroxy-4-(2-methoxyethyl)piperazine-2-carboxamide]: the half-maximal effective concentration (EC50) in data set [6] amounted to 22.5 nM; in data set [7], 232 nM; in data set [8], 19.9 nM; in data set [10], 47.9 nM; in [12], 7.9 nM. Further, the “Human Protein binding (%free)” value in the data set on human plasma protein is 2.3 %free. Further, the intrinsic clearance (microsomal CLint) in “in vitro [9]” was less than 3 µL/min/mg. The intrinsic clearance (hepatocyte CLint) in the data set “in vitro [11]” was greater than 300 µL/min/1e6 cells. This compound had a solubility in the data set “physchem [13]” of 431 µM (≈ 203 µg/mL). In “physchem [14]”, this compound displayed a logD of 2.4.

With `COCCN1CCN(S(=O)(=O)c2ccc(Oc3ccc(OC(F)(F)F)cc3)cc2)[C@@H](C(=O)NO)C1` [compound 16, (R)-N-Hydroxy-4-(2-methoxyethyl)-1-((4-(4-(trifluoromethoxy)phenoxy)phenyl)sulfonyl)piperazine-2-carboxamide], the EC50 worked out at 79.3 nM in data set [6]; 856 nM in [7]; 27.8 nM in data set [8]; 76.9 nM in [10]; 15.9 nM in data set [12]. The “Human Protein binding (%free)” value with human plasma protein is on record as 3.0 %free. Besides, in the data set “in vitro [9]”, the microsomal CLint amounted to 8 µL/min/mg. This compound registered a hepatocyte CLint in the data set “in vitro [11]” of 65.6 µL/min/1e6 cells. Besides, the solubility in the data set “physchem [13]” came out at 437 µM (≈ 227 µg/mL). Also, the logD in “physchem [14]” worked out at 2.9.

In the case of `COCCN1CCN(S(=O)(=O)c2ccc(Oc3ccc(OC)cc3)cc2)[C@@H](C(=O)NO)C1` [compound 17, (R)-N-Hydroxy-4-(2-methoxyethyl)-1-((4-(4-methoxyphenoxy)phenyl)sulfonyl)piperazine-2-carboxamide], the concentration for a half-maximal effect (EC50) came out at 11.9 nM in data set [6]; 209 nM in data set [7]; 10.4 nM in [8]; 31.1 nM in data set [10]; 1.1 nM in data set [12]. Also, the “Human Protein binding (%free)” value with human plasma protein is 6.4 %free. This compound had a microsomal CLint in “in vitro [9]” greater than 300 µL/min/mg. In “in vitro [11]”, this compound had an intrinsic metabolic clearance (hepatocyte CLint) of 209 µL/min/1e6 cells. Besides, the solubility in “physchem [13]” is 236 µM (≈ 110 µg/mL). This compound came in with a logD in “physchem [14]” of 1.9.

Regarding `COc1ccc(S(=O)(=O)N2CCNC[C@@H]2C(=O)NO)cc1.Cl` [compound 18, (R)-N-Hydroxy-1-((4-methoxyphenyl)sulfonyl)piperazine-2-carboxamide hydrochloride salt], the concentration for a half-maximal effect (EC50) in data set [6] turned out to be 83.3 nM; in data set [7], 56.1 nM; in [8], 24.7 nM; in data set [10], 69.3 nM; in data set [12] it was 47.6 nM. In addition, the “Human Protein binding (%free)” value in the data set on human plasma protein amounted to 91 %free. For the same compound, the microsomal CLint in “in vitro [9]” was less than 3 µL/min/mg. For the same compound, the intrinsic clearance (hepatocyte CLint) in “in vitro [11]” came to 6.3 µL/min/1e6 cells. In the data set “physchem [13]”, this compound yielded a solubility of 231 µM. The compound also gave a logD in “physchem [14]” of -0.2.

For the compound `COc1ccc(S(=O)(=O)N2CCN(S(C)(=O)=O)C[C@@H]2C(=O)NO)cc1` [compound 19, (R)-N-Hydroxy-1-((4-methoxyphenyl)sulfonyl)-4-(methylsulfonyl)piperazine-2-carboxamide], the concentration for a half-maximal effect (EC50) in data set [6] is 62.9 nM; in data set [7] it was 20 nM; in data set [2], 496 nM; in [8] it was 14.3 nM; in [10], 45.3 nM; in [5] it was 509 nM. For the same compound, in data set [12], the EC50 was found to be 10.9 nM. Moreover, the “Human Protein binding (%free)” value with human plasma protein came to 88 %free. This compound returned an intrinsic metabolic clearance (microsomal CLint) in the data set “in vitro [9]” of less than 3 µL/min/mg. Further, the hepatocyte CLint in the data set “in vitro [11]” turned out to be 8.9 µL/min/1e6 cells. Further, the solubility in “physchem [13]” was less than 1000 µM. This compound also displayed a log distribution coefficient (logD) in “physchem [14]” of -0.3.

For `COCCN1CCN(S(=O)(=O)c2ccc(OC)cc2)[C@@H](C(=O)NO)C1` [compound 20, (R)-N-Hydroxy-4-(2-methoxyethyl)-1-((4-methoxyphenyl)sulfonyl)piperazine-2-carboxamide], the EC50 is 137 nM in [6]; 86.2 nM in [7]; greater than 10000 nM in data set [2]; 11.1 nM in data set [8]; 68.9 nM in data set [10]; greater than 10000 nM in [5]. Besides, in data set [12], the EC50 came to 61.9 nM. For the same compound, the “Human Protein binding (%free)” value in the data set on human plasma protein was 82 %free. Besides, the microsomal CLint in the data set “in vitro [9]” is less than 3 µL/min/mg. In addition, the “inhibition” value in [4] is “inactive”. The intrinsic clearance (hepatocyte CLint) in “in vitro [11]” was determined as 57.1 µL/min/1e6 cells. In the data set “physchem [13]”, the solubility is greater than 1000 µM. In the data set “physchem [14]”, the logD stood at 0.1.

On to `COc1ccc(S(=O)(=O)N2CCN(S(=O)(=O)c3ccc(OC)cc3)[C@@H](C(=O)NO)C2)cc1` [compound 21, (R)-N-Hydroxy-1,4-bis((4-methoxyphenyl)sulfonyl)piperazine-2-carboxamide], for which the EC50 in [6] was found to be 58.8 nM; in data set [7], 18.2 nM; in data set [2], 4590 nM; in data set [8], 10.6 nM; in data set [10] it was 32.5 nM; in data set [5], 3920 nM. For the same compound, the half-maximal effective concentration (EC50) in data set [12] came to 15 nM. For the same compound, in the data set with human plasma protein, the “Human Protein binding (%free)” value is listed as 30 %free. Moreover, the microsomal CLint in “in vitro [9]” amounted to 10.2 µL/min/mg. The same compound came in with a hepatocyte CLint in “in vitro [11]” of 199 µL/min/1e6 cells. This compound also had a solubility in “physchem [13]” of 25 µM (≈ 12.1 µg/mL). Also, in “physchem [14]”, the logD is 1.

For `COc1ccc(S(=O)(=O)N2CCN(S(=O)(=O)c3c(C)noc3C)C[C@@H]2C(=O)NO)cc1` [compound 22, (R)-4-((3,5-Dimethylisoxazol-4-yl)sulfonyl)-N-hydroxy-1-((4-methoxyphenyl)sulfonyl)piperazine-2-carboxamide], the EC50 in [6] amounted to 53.3 nM; in data set [7] it was 17.8 nM; in [2], 4850 nM; in [8] it was 9.8 nM; in data set [10] it was 35 nM; in data set [5], 1090 nM. Also, the 50% effective concentration (EC50) in data set [12] was 10.7 nM. In addition, the “Human Protein binding (%free)” value in the data set on human plasma protein turned out to be 51 %free. Besides, the intrinsic clearance (microsomal CLint) in “in vitro [9]” was found to be 17.5 µL/min/mg. In “in vitro [11]”, this compound had an intrinsic metabolic clearance (hepatocyte CLint) of 44 µL/min/1e6 cells. The solubility in “physchem [13]” is greater than 1000 µM. In “physchem [14]”, this compound displayed a logD of 0.7.

In the case of `COCCN1CCN(S(=O)(=O)c2ccc(Oc3ccc(C(F)(F)F)cc3)cc2)[C@@H](C(=O)NO)C1` [compound 28, (R)-N-Hydroxy-4-(2-methoxyethyl)-1-((4-(4-(trifluoromethyl)phenoxy)phenyl)sulfonyl)piperazine-2-carboxamide], the EC50 in data set [6] worked out at 95.9 nM; in data set [7], 1510 nM; in [8], 39.5 nM; in data set [10], 68.8 nM; in data set [12], 7.6 nM. For the same compound, in the data set with human plasma protein, the “Human Protein binding (%free)” value turned out to be 3.4 %free. Further, in “in vitro [9]”, the microsomal CLint stood at 8.6 µL/min/mg. The compound further showed a hepatocyte CLint in “in vitro [11]” of 22.8 µL/min/1e6 cells. In the data set “physchem [13]”, this compound returned a solubility of 320 µM (≈ 161 µg/mL). This compound also registered a logD in “physchem [14]” of 2.7.

As to `COCCN1CCN(S(=O)(=O)c2ccc(-c3ccc(Cl)cc3)cc2)[C@@H](C(=O)NO)C1` [compound 29, (R)-1-((4′-Chloro-[1,1′-biphenyl]-4-yl)sulfonyl)-N-hydroxy-4-(2-methoxyethyl)piperazine-2-carboxamide], the EC50 in data set [6] is 220 nM; in data set [7], 38.9 nM; in data set [2] it was greater than 10000 nM; in [8], 3.5 nM; in data set [10], 52.7 nM; in [5], greater than 10000 nM. Further, the EC50 in data set [12] came out at 16.1 nM. Also, the “Human Protein binding (%free)” value in the data set on human plasma protein is listed as 5.2 %free. Besides, the intrinsic clearance (microsomal CLint) in “in vitro [9]” is 5.1 µL/min/mg. Besides, the “inhibition” value in data set [4] was “inactive”. This compound also gave a hepatocyte CLint in “in vitro [11]” of 21.1 µL/min/1e6 cells. The compound further returned a solubility in “physchem [13]” of 310 µM (≈ 141 µg/mL). For the same compound, the logD in “physchem [14]” stood at 2.5.

Consider `COCCN1CCN(S(=O)(=O)c2ccc(-c3ccc(F)cc3)cc2)[C@@H](C(=O)NO)C1` [compound 30, (R)-1-((4′-Fluoro-[1,1′-biphenyl]-4-yl)sulfonyl)-N-hydroxy-4-(2-methoxyethyl)piperazine-2-carboxamide], for which the EC50 was 125 nM in data set [6]; 27.1 nM in data set [7]; greater than 10000 nM in [2]; 1.8 nM in data set [8]; 18.6 nM in data set [10]; greater than 10000 nM in data set [5]. Moreover, the half-maximal effective concentration (EC50) in data set [12] is 18.5 nM. In the data set with human plasma protein, the “Human Protein binding (%free)” value came out at 14.0 %free. In “in vitro [9]”, this compound returned a microsomal CLint of 7.1 µL/min/mg. Also, the “inhibition” value in data set [4] is “inactive”. This compound also gave a hepatocyte CLint in “in vitro [11]” greater than 300 µL/min/1e6 cells. Further, the concentration in solution in the data set “physchem [13]” (solubility) was 468 µM (≈ 205 µg/mL). Moreover, the logD in the data set “physchem [14]” came out at 1.9.

As a reminder, the EC50 is the concentration that produces a half-maximal response. What is called microsomal CLint is a measure of how fast metabolising enzymes remove a compound, apart from limits set by blood flow. As usually defined, the hepatocyte CLint is the capacity of the preparation to metabolise the compound, expressed as a volume cleared per time. Low values mean greater metabolic stability, high ones faster metabolism. The solubility is how much of the substance goes into solution per volume. A high value points to much dissolved substance. Usually logD stands for lipophilicity at a set pH, counting ionised and neutral species.
